Reference: the NIST ThermoML archive (doi:10.1021/je060271a)
Where “and” joins values, the source holds several entries; their conditions need not be identical. Equal entries are not always repeated. ± gives the expanded uncertainty stated by the source.

Settings: Liquid, Vibrating tube method

With CCCCCC(=O)OCC(COC(=O)CCCCC)(COC(=O)CCCCC)COC(=O)CCCCC [pentaerythritol tetrahexanoate] the mass density (323.14 K, 9872.1 kPa) was 979.5 ± 1.2 kg/m3, the mass density (323.14 K, 9877.7 kPa) was 979.4 ± 1.2 kg/m3 and the mass density (323.14 K, 9882.8 kPa) was 979.5 ± 1.2 kg/m3. It also gave a mass density (323.14 K, 9890.7 kPa) of 979.4 ± 1.2 kg/m3, a mass density (323.14 K, 10279 kPa) of 979.8 ± 1.2 kg/m3 and a mass density (323.14 K, 10299 kPa) of 979.7 ± 1.2 kg/m3. The mass density (323.14 K, 10325 kPa) was 979.8 ± 1.2 kg/m3, the mass density (323.14 K, 10354 kPa) was 979.8 ± 1.2 kg/m3 and the mass density (323.14 K, 10377 kPa) was 979.8 ± 1.2 kg/m3. It also gave a mass density (323.14 K, 10409 kPa) of 979.8 ± 1.2 kg/m3, a mass density (323.14 K, 10437 kPa) of 979.7 ± 1.2 kg/m3 and a mass density (323.14 K, 10641 kPa) of 980 ± 1.2 kg/m3. For the same compound, the mass density (323.14 K, 10798 kPa) was 980.1 ± 1.2 kg/m3, the mass density (323.14 K, 10825 kPa) was 980 ± 1.2 kg/m3 and the mass density (323.14 K, 10850 kPa) was 980 ± 1.2 kg/m3. The mass density (323.14 K, 10879 kPa) was 980.1 ± 1.2 kg/m3, the mass density (323.14 K, 10908 kPa) was 980.2 ± 1.2 kg/m3 and the mass density (323.14 K, 10930 kPa) was 980.1 ± 1.2 kg/m3. It also gave a mass density (323.14 K, 11644 kPa) of 980.6 ± 1.2 kg/m3, a mass density (323.14 K, 11671 kPa) of 980.7 ± 1.2 kg/m3 and a mass density (323.14 K, 11694 kPa) of 980.7 ± 1.2 kg/m3. The mass density (323.14 K, 11721 kPa) was 980.6 ± 1.2 kg/m3, the mass density (323.14 K, 11748 kPa) was 980.6 ± 1.2 kg/m3 and the mass density (323.14 K, 11771 kPa) was 980.7 ± 1.2 kg/m3. It also gave a mass density (323.14 K, 11798 kPa) of 980.7 ± 1.2 kg/m3, a mass density (323.14 K, 11821 kPa) of 980.9 ± 1.2 kg/m3 and a mass density (323.14 K, 11872 kPa) of 980.8 ± 1.2 kg/m3. For the same compound, the mass density (323.14 K, 13057 kPa) was 981.6 ± 1.2 kg/m3, the mass density (323.14 K, 13085 kPa) was 981.6 ± 1.2 kg/m3 and the mass density (323.14 K, 13108 kPa) was 981.6 ± 1.2 kg/m3. It also gave a mass density (323.14 K, 13136 kPa) of 981.6 ± 1.2 kg/m3, a mass density (323.14 K, 13163 kPa) of 981.7 ± 1.2 kg/m3 and a mass density (323.14 K, 13448 kPa) of 981.9 ± 1.2 kg/m3. It also gave a mass density (323.14 K, 13476 kPa) of 981.9 ± 1.2 kg/m3, a mass density (323.14 K, 13500 kPa) of 982 ± 1.2 kg/m3 and a mass density (323.14 K, 13529 kPa) of 981.8 ± 1.2 kg/m3. The mass density (323.14 K, 13553 kPa) was 981.9 ± 1.2 kg/m3, the mass density (323.14 K, 13581 kPa) was 982 ± 1.2 kg/m3 and the mass density (323.14 K, 13609 kPa) was 981.9 ± 1.2 kg/m3. The mass density (323.14 K, 13633 kPa) was 982 ± 1.2 kg/m3, the mass density (323.14 K, 13661 kPa) was 982 ± 1.2 kg/m3 and the mass density (323.14 K, 13684 kPa) was 982 ± 1.2 kg/m3. The mass density (323.14 K, 13711 kPa) was 982.1 ± 1.2 kg/m3, the mass density (323.14 K, 13739 kPa) was 982.1 ± 1.2 kg/m3 and the mass density (323.14 K, 13763 kPa) was 982 ± 1.2 kg/m3. The mass density (323.14 K, 13791 kPa) was 982.1 ± 1.2 kg/m3, the mass density (323.14 K, 13814 kPa) was 982 ± 1.2 kg/m3 and the mass density (323.14 K, 13841 kPa) was 982.2 ± 1.2 kg/m3. It also gave a mass density (323.14 K, 13868 kPa) of 982.2 ± 1.2 kg/m3, a mass density (323.14 K, 14047 kPa) of 982.2 ± 1.2 kg/m3 and a mass density (323.14 K, 14070 kPa) of 982.3 ± 1.2 kg/m3. For the same compound, the mass density (323.14 K, 14098 kPa) was 982.2 ± 1.2 kg/m3, the mass density (323.14 K, 14122 kPa) was 982.3 ± 1.2 kg/m3 and the mass density (323.14 K, 14149 kPa) was 982.4 ± 1.2 kg/m3. It also gave a mass density (323.14 K, 14177 kPa) of 982.3 ± 1.2 kg/m3, a mass density (323.14 K, 14200 kPa) of 982.3 ± 1.2 kg/m3 and a mass density (323.14 K, 14229 kPa) of 982.4 ± 1.2 kg/m3. It also gave a mass density (323.14 K, 14257 kPa) of 982.3 ± 1.2 kg/m3, a mass density (323.14 K, 14281 kPa) of 982.5 ± 1.2 kg/m3 and a mass density (323.14 K, 14309 kPa) of 982.5 ± 1.2 kg/m3. The mass density (323.14 K, 14333 kPa) was 982.4 ± 1.2 kg/m3, the mass density (323.14 K, 14362 kPa) was 982.5 ± 1.2 kg/m3 and the mass density (323.14 K, 14385 kPa) was 982.3 ± 1.2 kg/m3. The mass density (323.14 K, 14412 kPa) was 982.5 ± 1.2 kg/m3, the mass density (323.14 K, 14435 kPa) was 982.6 ± 1.2 kg/m3 and the mass density (323.14 K, 14462 kPa) was 982.5 ± 1.2 kg/m3. For the same compound, the mass density (323.14 K, 14491 kPa) was 982.5 ± 1.2 kg/m3, the mass density (323.14 K, 14542 kPa) was 982.6 ± 1.2 kg/m3 and the mass density (323.14 K, 14860 kPa) was 982.8 ± 1.2 kg/m3. For the same compound, the mass density (323.14 K, 14888 kPa) was 982.8 ± 1.2 kg/m3, the mass density (323.14 K, 14912 kPa) was 982.7 ± 1.2 kg/m3 and the mass density (323.14 K, 14941 kPa) was 982.8 ± 1.2 kg/m3. For the same compound, the mass density (323.14 K, 14965 kPa) was 982.8 ± 1.2 kg/m3, the mass density (323.14 K, 14994 kPa) was 982.8 ± 1.2 kg/m3 and the mass density (323.14 K, 15019 kPa) was 982.8 ± 1.2 kg/m3. The mass density (323.14 K, 15047 kPa) was 982.8 ± 1.2 kg/m3, the mass density (323.14 K, 15070 kPa) was 982.8 ± 1.2 kg/m3 and the mass density (323.14 K, 15098 kPa) was 983 ± 1.2 kg/m3. For the same compound, the mass density (323.14 K, 15126 kPa) was 982.9 ± 1.2 kg/m3, the mass density (323.14 K, 15150 kPa) was 982.9 ± 1.2 kg/m3 and the mass density (323.14 K, 15177 kPa) was 983.1 ± 1.2 kg/m3. The mass density (323.14 K, 15205 kPa) was 983 ± 1.2 kg/m3, the mass density (323.14 K, 15229 kPa) was 983 ± 1.2 kg/m3 and the mass density (323.14 K, 32387 kPa) was 993.4 ± 1.2 kg/m3. The mass density (323.14 K, 32388 kPa) was 993.7 ± 1.2 kg/m3 and 993.6 ± 1.2 kg/m3 and 993.5 ± 1.2 kg/m3, the mass density (323.14 K, 32389 kPa) was 993.5 ± 1.2 kg/m3 and 993.6 ± 1.2 kg/m3 and the mass density (323.14 K, 32390 kPa) was 993.5 ± 1.2 kg/m3 and 993.6 ± 1.2 kg/m3. The mass density (323.14 K, 32391 kPa) was 993.5 ± 1.2 kg/m3, the mass density (323.14 K, 32392 kPa) was 993.6 ± 1.2 kg/m3 and the mass density (323.14 K, 32393 kPa) was 993.5 ± 1.2 kg/m3. The mass density (323.14 K, 32394 kPa) was 993.5 ± 1.2 kg/m3, the mass density (323.14 K, 32395 kPa) was 993.5 ± 1.2 kg/m3 and the mass density (323.14 K, 32396 kPa) was 993.5 ± 1.2 kg/m3 and 993.6 ± 1.2 kg/m3. The mass density (323.14 K, 32398 kPa) was 993.5 ± 1.2 kg/m3, the mass density (323.14 K, 32399 kPa) was 993.5 ± 1.2 kg/m3 and the mass density (323.14 K, 32400 kPa) was 993.6 ± 1.2 kg/m3. The mass density (323.14 K, 32401 kPa) was 993.6 ± 1.2 kg/m3, the mass density (323.14 K, 32402 kPa) was 993.4 ± 1.2 kg/m3 and the mass density (323.14 K, 32403 kPa) was 993.5 ± 1.2 kg/m3. For the same compound, the mass density (323.14 K, 32404 kPa) was 993.5 ± 1.2 kg/m3, the mass density (323.15 K, 370.6 kPa) was 972.9 ± 1.2 kg/m3 and the mass density (323.15 K, 372.9 kPa) was 972.9 ± 1.2 kg/m3. It also gave a mass density (323.15 K, 374.8 kPa) of 973 ± 1.2 kg/m3, a mass density (323.15 K, 377 kPa) of 972.9 ± 1.2 kg/m3 and a mass density (323.15 K, 379.5 kPa) of 972.9 ± 1.2 kg/m3. For the same compound, the mass density (323.15 K, 381.7 kPa) was 973 ± 1.2 kg/m3, the mass density (323.15 K, 444.1 kPa) was 973 ± 1.2 kg/m3 and the mass density (323.15 K, 447.6 kPa) was 973 ± 1.2 kg/m3. It also gave a mass density (323.15 K, 450.5 kPa) of 973 ± 1.2 kg/m3, a mass density (323.15 K, 453.3 kPa) of 973 ± 1.2 kg/m3 and a mass density (323.15 K, 456.4 kPa) of 973.1 ± 1.2 kg/m3. The mass density (323.15 K, 460.3 kPa) was 973 ± 1.2 kg/m3, the mass density (323.15 K, 463.4 kPa) was 973 ± 1.2 kg/m3 and the mass density (323.15 K, 466.7 kPa) was 973 ± 1.2 kg/m3. It also gave a mass density (323.15 K, 470.7 kPa) of 973 ± 1.2 kg/m3, a mass density (323.15 K, 473.8 kPa) of 972.9 ± 1.2 kg/m3 and a mass density (323.15 K, 520.2 kPa) of 973 ± 1.2 kg/m3. The mass density (323.15 K, 524.4 kPa) was 973.1 ± 1.2 kg/m3, the mass density (323.15 K, 528.6 kPa) was 973.1 ± 1.2 kg/m3 and the mass density (323.15 K, 532.7 kPa) was 973 ± 1.2 kg/m3. For the same compound, the mass density (323.15 K, 536.7 kPa) was 973 ± 1.2 kg/m3, the mass density (323.15 K, 542.1 kPa) was 973 ± 1.2 kg/m3 and the mass density (323.15 K, 546.3 kPa) was 972.9 ± 1.2 kg/m3. It also gave a mass density (323.15 K, 551.3 kPa) of 973.1 ± 1.2 kg/m3, a mass density (323.15 K, 555.7 kPa) of 973.2 ± 1.2 kg/m3 and a mass density (323.15 K, 560.2 kPa) of 973.1 ± 1.2 kg/m3. The mass density (323.15 K, 564.7 kPa) was 973 ± 1.2 kg/m3, the mass density (323.15 K, 567.1 kPa) was 973 ± 1.2 kg/m3 and the mass density (323.15 K, 567.3 kPa) was 973.1 ± 1.2 kg/m3. The mass density (323.15 K, 568.2 kPa) was 973 ± 1.2 kg/m3, the mass density (323.15 K, 569.7 kPa) was 973.1 ± 1.2 kg/m3 and the mass density (323.15 K, 571.8 kPa) was 973.1 ± 1.2 kg/m3. For the same compound, the mass density (323.15 K, 573.7 kPa) was 973.1 ± 1.2 kg/m3, the mass density (323.15 K, 575.6 kPa) was 973.1 ± 1.2 kg/m3 and the mass density (323.15 K, 592.7 kPa) was 973.1 ± 1.2 kg/m3. It also gave a mass density (323.15 K, 594.8 kPa) of 973.2 ± 1.2 kg/m3, a mass density (323.15 K, 596.6 kPa) of 973.1 ± 1.2 kg/m3 and a mass density (323.15 K, 598.6 kPa) of 973.1 ± 1.2 kg/m3. It also gave a mass density (323.15 K, 601.2 kPa) of 973 ± 1.2 kg/m3, a mass density (323.15 K, 603.4 kPa) of 973 ± 1.2 kg/m3 and a mass density (323.15 K, 605.2 kPa) of 973.1 ± 1.2 kg/m3. The mass density (323.15 K, 607.4 kPa) was 973.1 ± 1.2 kg/m3, the mass density (323.15 K, 609.9 kPa) was 973 ± 1.2 kg/m3 and the mass density (323.15 K, 612 kPa) was 973.1 ± 1.2 kg/m3. The mass density (323.15 K, 614 kPa) was 973.1 ± 1.2 kg/m3.
